As to `CSc1nc(-c2ccccn2)n(-c2ccc(C)cc2)c(=O)c1C#N`, the melting point (as a rule, the temperature of the solid-liquid transition) was 247 to 248 °C.
Compound `CCc1nc2c(o1)C(=O)C=CC2=O` came in with a melting point of 99 °C.
With `O=S(=O)(c1cccc(C(F)(F)F)c1)c1cc(Br)nc(N2CCNCC2)c1`, the melting point fell in the range of 160 to 162 °C.
With `CC(CNC(=O)c1ccc(-c2ccc(Cl)cc2)cc1F)c1ccc(CN2CCCC2)cc1` (stereo not given) the figure was 119 to 121 °C; with `CC(C)(C)c1cc(Cn2c(=O)n(Cc3cc(C(C)(C)C)c(O)c(C(C)(C)C)c3)c(=O)n(Cc3cc(C(C)(C)C)c(O)c(C(C)(C)C)c3)c2=O)cc(C(C)(C)C)c1O`, 218 to 219 °C.
With `OC(CN1CCC(CCOC(c2ccccc2)c2ccccc2)C(O)C1)c1ccc(F)cc1` (stereo not given) the figure was 84 to 86 °C.
With `CC(=O)Nc1nc(-c2ccc(C(C)(C)C)cc2)c(-c2ccncc2)s1` the figure was 280 to 281 °C; with `Cc1cc(C(C)(C)c2ccc(O)cc2)ccc1O`, 112 to 113 °C.
`NS(=O)(=O)c1nc(-c2ccccc2F)ns1` yielded a melting point of 177 to 179 °C.
With `CCCNC(=S)c1ccc2c(c1)N(C(C)CN1CCCC1)c1ccccc1S2` (racemic) the figure was 150 to 152 °C.
The result for `NC(=O)c1[nH]c2cccnc2c1Sc1ccc(Cl)cc1Cl` reads 266 °C; that for `C/C(=C\c1ccc(C(C)(C)C)cc1)CNc1cccc(-c2ccnc3c(C(=O)c4cccs4)cnn23)c1`, 135 to 137 °C.
With `COc1ccc2c(c1)C(=O)C(=O)C1=C2OC2(CCN(CC(O)COc3ccc(F)cc3)CC2)CS1` (stereo not given) the figure was 189 to 191 °C; with `CC1COCc2nc3c(N)nc4ccc(OC(=O)N5CCCC5)cc4c3n21` (stereo not given), 218 to 219 °C; with `COc1cc(-c2cnc3[nH]cc(C(=O)C4(C)CCCC(C)C4)c3n2)cc(OC)c1OC` (stereo not given), 229 to 231 °C.
As to `O=C(O)c1cccc(CO[N+](=O)[O-])c1`, the melting point fell in the range of 123 to 125 °C.
The result for `COCC(=O)C(=NNc1ccc(I)cc1F)C(=O)OC` reads 141 to 146 °C; that for `O=Cc1cc(CSc2c(Cl)cccc2Cl)ccc1O`, 114 to 117 °C; that for `CCCc1c(C(C)=NO)c2ccc(C(N)=O)cc2n1Cc1ccccc1Cl`, 212 to 216 °C.
The result for `CC(=O)NCC=C1CCc2ccc3nc(C)oc3c21` reads 188 to 190 °C; that for `COc1ccc(O)c(CNc2ccc(NC(=O)CC(C)(C)C)cc2)c1`, 126 to 129 °C.
The result for `CC(=O)c1ccc(Oc2ccc(F)cc2)cc1` reads 65 to 67 °C.
On to `CS(=O)(=O)Cc1cc(F)cc(F)c1`, for which the melting point stood at 135 °C.
In the case of `O=CNc1ccc(Br)c(Cl)c1`, the melting point is 110 to 113 °C.
With `CNC(=O)Cn1c(Cl)ccc1Cl` the figure was 193 to 194 °C.
Compound `Cc1cccc(C(=O)O)c1N(C)S(=O)(=O)c1ccc(OCCCCNC(=O)c2cc3ccccc3o2)cc1` had a melting point above 200 °C.
With `CC(C)Oc1ccc(O)cc1OCCN1C(=O)c2ccccc2C1=O` the figure was 123 °C; with `COc1ccccc1C(=O)NCCc1ccc(-c2ccc(O)cc2)cc1`, 118 °C; with `CC(=N)Nc1nc(-c2ccccn2)nc2ccccc12`, 172 to 173 °C.
The result for `O=C1c2cc(F)ccc2-n2cnc(C(=O)n3ccnc3)c2[C@@H]2CCCN12` reads 206 to 207 °C.
The result for `FC(F)Oc1ccc(C2=NNCC2n2cc(Cl)cn2)cc1` (stereo not given) reads 93 °C.
For the compound `Cc1[nH]c(C=O)c(C)c1CCCCO`, the melting point was 99 °C.
With `CCN(CC)CC1CN=C(N)O1` (stereo not given), the melting point stood at 90 °C.
The result for `CC(C)n1nc(-c2c(-c3ccccc3)nn3ccc(N4CCN(C(=O)N(C)C)CC4)cc23)ccc1=O` reads 160 to 161 °C; that for `CC(=O)Nc1ccc2c(c1)C(=O)CC2`, 176 to 180 °C; that for `COc1ccc(C2=NN(c3ccc([N+](=O)[O-])cc3)C(=O)[C@H]3CC=CC[C@@H]23)cc1OC` (relative stereo), 179 to 182 °C.
With `CN1C(=O)CN(C(=O)CCl)C(c2ccccc2)c2cc(Cl)ccc21` (stereo not given) the figure was 197 to 200 °C; with `CCOC(=O)c1c(C(F)F)nc(C(F)(F)F)c(C(=O)OCC)c1NC(C)(C)C`, 30 to 31 °C; with `CCOC(=O)c1c(C(C)C)nc2c(c1-c1ccc(F)cc1)CCCC2(C)C`, 124 to 126 °C.
With `COC(=O)c1cc(C=O)ccc1OCc1nc(-c2ccco2)oc1C` the figure was 121 to 122 °C; with `Cc1c(C#N)sc(N=Nc2c(NCCO)nc(NCCO)c(C#N)c2C)c1C#N`, 268 to 269 °C.
`COCCc1nc2c(N)nc3ccc(OCc4ccccc4)cc3c2n1C` returned a melting point of 192 to 194 °C.
The result for `NS(=O)(=O)Oc1cccc(Cl)c1Cl` reads 116 to 117 °C; that for `C=C(C)[C@H](C(=O)OC(c1ccccc1)c1ccccc1)N1C(=O)[C@@H]2N=C(c3ccccc3)O[C@@H]21`, 116 to 118 °C.
The result for `CCOC(=O)c1[nH]c2cccc3c2c1CCC3O` (stereo not given) reads 166 to 170 °C; that for `Cc1[nH]c(=O)c(C#N)cc1-c1ccc(OCCCC(=O)O)cc1`, 247 to 249 °C; that for `COc1cccc2c1SCC(C(=O)O)C2` (stereo not given), 138 to 144 °C.
With `CC(=O)N1c2ccccc2Sc2cc([N+](=O)[O-])ccc21` the figure was 144 to 146 °C.
In the case of `COc1ccc(N2CC(CN3CCC(O)(c4ccc(Cl)cc4)CC3)OC2=O)cc1` (stereo not given), the melting point lay in the range of 143 to 144 °C.
The result for `Fc1ccccc1N1CCN(Cc2nc3ccccc3[nH]2)CC1` reads 262 to 264 °C; that for `CSc1cc(C(C)(C)C)n[nH]1`, 135 to 136 °C; that for `O=C1CCN(c2cc3c(cc2-c2ccccc2F)NC(=O)CC(c2cccc(-n4ccnc4)c2)=N3)CC1`, 230 °C.
The result for `CC1(C)SC(=O)N(Cc2ccccc2[N+](=O)[O-])C1O` (stereo not given) reads 139 to 143 °C.
With `CCCCc1sc2ccc([N+](=O)[O-])cc2c1C(=O)c1ccc(OCCCN(CCCC)CCCC)cc1`, the melting point was found to be 88 °C.
The result for `CCOC(=O)/C=C/C=C/c1ccc(OCc2ccccc2)c(OC)c1` reads 85 to 86 °C; that for `C#CCNC1=NS(=O)(=O)N=C1NCCSCc1csc(NC(=N)N)n1`, 176 to 178 °C.
`Cc1noc(NS(=O)(=O)c2ccccc2-c2ccc(CC(C)C)cc2NC=O)c1C` yielded a melting point of 87 to 95 °C.
`COc1cccc(C2CCC(=O)N2)c1` (stereo not given) yielded a melting point of 84 to 85 °C.
The result for `CN(C)C1CC=C(c2c[nH]c3ccc([N+](=O)[O-])cc23)CC1` (stereo not given) reads 234 to 236 °C; that for `CC(=O)c1ccc(OCCOc2ccc3ccccc3c2)c([N+](=O)[O-])c1`, 158 to 160 °C; that for `O=C(O)c1cccc2c1CCc1cc(F)ccc1S2`, 200 to 202 °C.
As to `Nc1nc(-c2ccccc2)c(CCBr)c2ncnn12`, the melting point is 193 to 194 °C.
The result for `CC(C)n1c(=O)nc(-c2ccc3c(c2)OCO3)c2cc3c(cc21)OCCO3` reads 229 to 231 °C.
With `CN1CCCC1CCOc1ccccc1CCc1cccc(C#N)c1` (stereo not given) the figure was 101 to 102 °C; with `CS(=O)(=O)c1ccc(-c2cnn(Cc3ccncc3)c(=O)c2-c2ccc(F)cc2)cc1`, 153 to 156 °C; with `BrCCCSc1ccc2ncnn2n1`, 133 to 135 °C.
With `Cc1ccc(N(C)S(=O)(=O)c2cccs2)c2[nH]c(C3=NCC(CCO)S3)cc12` (stereo not given) the figure was 168 to 169 °C.
In the case of `O=C(NCc1ccc(Cl)cc1)c1cn(CCCN2CCCCC2)c2ccc(C#CCO)cc2c1=O`, the melting point lay within 160 to 163 °C.
The result for `COc1ccc(C(=N)N)cc1C` reads 151 to 153 °C; that for `CNC(=O)ON=C1N=C(C)C(C)(CC(C)C)S1` (stereo not given), 99 to 101 °C.
The result for `O=C1Nc2ccc(-c3ccc(F)c(Cl)c3)cc2C12CCCC2` reads 202 to 204 °C.
`N#CC(c1ccncc1)c1nnc(Nc2ccc3ncsc3c2)c2ccccc12` (stereo not given): the melting point is 163 to 164 °C.
As for `O=S1(=O)N=C(NC2CCN(Cc3ccccc3)C2)Nc2ccc(Cl)cc21` (stereo not given), the melting point was in the range of 208 to 210 °C.
`CCCc1nn(C)c2c(=O)n(CCOc3ccc(CC(OCC)C(=O)O)cc3)c(CC)nc12` (single isomer, unassigned; (+)) gave a melting point of 144 to 145 °C.
In the case of `CCCCCCCCCCCCCCOc1ccc(CC(=O)NCCc2ccccn2)cc1`, the melting point fell in the range of 90 to 91 °C.
The result for `O=C1COc2ccc3ccccc3c21` reads 194 to 196 °C; that for `CCC(C)Nc1nc(Cc2cc(OC)c(OC)c(OC)c2)nc2sc(C#N)c(C)c12` (stereo not given), 134 to 137 °C.
With `CC(C)n1nc(-c2sc(C(=O)NC3CC3)nc2-c2ccccc2)ccc1=O` the figure was 127 to 128 °C; with `CN(C)S(=O)(=O)c1ccc(N2CC(CO)OC2=O)cc1` (stereo not given), 174 to 176 °C.
With `CCOC(=O)c1ccc(NCC(C)Oc2ccc(Cl)c3ccccc23)cc1` (stereo not given) the figure was 122 °C; with `Cc1ccc(S(=O)(=O)OCC2Cc3cccc(-c4ccc(F)cc4F)c3O2)cc1` (stereo not given), 116 to 118 °C.
As to `COC(=O)c1ccc(Cl)cc1NC(=O)CSc1cccc(C)c1`, the melting point is 75 to 77 °C.
The result for `NCCCP(=O)(O)C(F)F` reads 261 °C.
With `O=C(c1ccc(Cl)cc1)c1ccc2c(c1)Cc1ccccc1-2` the figure was 183 °C.
The result for `C[C@H](Nc1ncnc2[nH]cnc12)c1oc2ccc(F)cc2c(=O)c1-c1cccc(F)c1` reads 194 to 197 °C; that for `COC(=O)CCCCCCCNC(=O)C(CSC(C)=O)Cc1ccccc1` (stereo not given), 44 to 45 °C; that for `Cc1cccc(-n2cc(-c3ccc4c(c3)N(C(=O)CN3CCN(C)CC3)CCO4)nn2)n1`, 132 °C.
Consider `CC(=O)SC(CC(=O)c1cccc(Cl)c1)C(=O)O` (stereo not given), for which the melting point was in the range of 85 to 86 °C.
With `CC1(C)COC(=O)N1c1nc(-c2ccccc2)cs1` the figure was 94 to 97 °C; with `Oc1ccc(Nc2nncc3ccccc23)cc1`, 245 to 247 °C.

These data come from a melting point compilation (Tetko et al.; mined from patent text by program, amines drawn as free bases though some values may be those of a salt).
